# From paper PMC10620989, “Going beyond Binary: Rapid Identification of Protein–Protein Interaction Modulators Using a Multifragment Kinetic Target-Guided Synthesis Approach” (Journal of Medicinal Chemistry, 2023)
# Key:
# Bcl-XL = Bcl-XL (Homo sapiens, UniProt Q07817); assay: Multifragment KTGS incubation with Bcl-XL (9 TA x 9 SZ in one well), LC-MS/MS; conditions: 81 combinations in one well, 5 μM Bcl-XL, phosphate buffer pH 7.4, 8 h
# [1] = target: GST-tagged mouse Mcl-1-(152–309) (Mus musculus, UniProt P97287); assay: Fluorescence polarization competitive binding assay, GST-Mcl-1 / FITC-Bim-BH3; conditions: FP; for IC50: GST-Mcl-1 and fluorescein-labeled Bim BH3 peptide, read-out: IC50 on Mcl-1; for inhibition at 50 µM: compound at 50 µM
# Chain of GST-tagged mouse Mcl-1-(152–309) (P97287 152-309): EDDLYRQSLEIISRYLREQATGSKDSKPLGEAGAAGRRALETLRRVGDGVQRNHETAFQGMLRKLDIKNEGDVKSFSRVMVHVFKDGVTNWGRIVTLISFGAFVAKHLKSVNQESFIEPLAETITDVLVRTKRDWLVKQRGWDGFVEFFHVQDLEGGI
# GST-Bcl-XL [2] = target: T1, GST-Bcl-XL (Homo sapiens, UniProt Q07817); assay: Fluorescence polarization assay, GST-Bcl-XL / fluorescein-labeled Bak BH3 peptide; assay type: binding; conditions: FP, GST-Bcl-XL and fluorescein-labeled Bak BH3 peptide; ND = not detected
# T1 sequence (Q07817 whole entry, the tested form may be a part): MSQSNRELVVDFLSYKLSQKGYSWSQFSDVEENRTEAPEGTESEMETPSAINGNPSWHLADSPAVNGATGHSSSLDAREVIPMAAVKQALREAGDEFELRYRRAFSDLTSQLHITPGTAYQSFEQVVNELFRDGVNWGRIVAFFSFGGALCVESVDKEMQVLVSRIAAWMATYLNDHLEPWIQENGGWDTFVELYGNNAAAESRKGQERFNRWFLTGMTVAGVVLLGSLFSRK
# Mcl-1 [3] = target: T2, Mcl-1 (Mus musculus, UniProt P97287); assay: Multifragment KTGS screen against Mcl-1 (5 TA x 38 SZ per well), LC-MS/MS; conditions: multifragment KTGS, 190 combinations per well, 10 μM Mcl-1, 20 μM each fragment, pH 7.4, 37 °C, 10 h; peak area with protein / without protein
# T2 sequence (P97287 whole entry, the tested form may be a part): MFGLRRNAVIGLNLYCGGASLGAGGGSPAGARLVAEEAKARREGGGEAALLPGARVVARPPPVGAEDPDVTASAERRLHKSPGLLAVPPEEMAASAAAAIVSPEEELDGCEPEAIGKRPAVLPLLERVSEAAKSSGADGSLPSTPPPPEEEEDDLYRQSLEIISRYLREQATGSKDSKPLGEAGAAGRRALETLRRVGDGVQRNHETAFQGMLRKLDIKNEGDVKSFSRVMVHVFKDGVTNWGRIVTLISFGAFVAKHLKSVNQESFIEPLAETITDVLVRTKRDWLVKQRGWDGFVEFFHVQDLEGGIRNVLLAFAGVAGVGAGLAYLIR
# Mcl-1 [4] = target: T2, Mcl-1; assay: Binary KTGS incubation (1 TA x 1 SZ) with Mcl-1, LC-MS/MS; conditions: binary incubation mixtures with and without Mcl-1
# GST-Bcl-XL [5] = target: T1, GST-Bcl-XL; parameters: method as in PMID 21892513; conditions: 50 μM; ref 15b; cited from earlier work
# Chain of Bcl-XL (Q07817 whole entry, species assumed, the tested form may be a part): as the sequence (Q07817 whole entry, the tested form may be a part) above
SMILES,Amplification coefficient (Bcl-XL),IC50 on Bcl-XL (GST-Bcl-XL [2]),IC50 [1] [µM],inhibition at 50 µM [1] [%],IC50 (GST-Bcl-XL [2]) [µM],Amplification coefficient 5TA x 38SZ (Mcl-1 [3]),Amplification coefficient 1TA x 1SZ (Mcl-1 [4]),inhibition of the Bcl-XL/Bak BH3 interaction (GST-Bcl-XL [5]) [%]
"[N-]=[N+]=NS(=O)(=O)c1ccc(CN(CCSc2ccccc2)Cc2ccc(S(=O)(=O)NC(=O)c3ccccc3)cc2)cc1 [SZ9TA1, O=C(NS(C1=CC=C(CN(CC2=CC=C(S(=O)(N=[N+]=[N-])=O)C=C2)CCSC3=CC=CC=C3)C=C1)(=O)=O)C4=CC=CC=C4]",7.3,,19.8,97.3,28.8,14,4,
"[N-]=[N+]=NS(=O)(=O)c1ccc(CN(CCSc2ccccc2)Cc2ccc(S(=O)(=O)NC(=O)c3cccc4ccccc34)cc2)cc1 [SZ9TA7, O=C(NS(C1=CC=C(CN(CC2=CC=C(S(=O)(N=[N+]=[N-])=O)C=C2)CCSC3=CC=CC=C3)C=C1)(=O)=O)C4=C(C=CC=C5)C5=CC=C4]",7.1,,8.2,94.1,66.3,23,6,45
"O=C(Cn1c2ccccc2c2ccccc21)NS(=O)(=O)c1ccc(CN(CCSc2ccccc2)Cc2ccc3c(c2)OCO3)cc1 [SZ31TA15, O=C(NS(C1=CC=C(CN(CC2=CC(OCO3)=C3C=C2)CCSC4=CC=CC=C4)C=C1)(=O)=O)CN5C(C=CC=C6)=C6C7=C5C=CC=C7]",,below the detectable threshold,14,80.7,,72,6,
"Cc1noc(C)c1-c1ccc(S(=O)(=O)NC(=O)c2ccc(CN3C(=O)C(c4ccc(F)cc4F)=C(c4ccc(F)cc4F)C3=O)cc2)cc1 [SZ32TA42, O=C(NS(C1=CC=C(C2=C(C)ON=C2C)C=C1)(=O)=O)C3=CC=C(CN4C(C(C5=C(F)C=C(F)C=C5)=C(C6=CC=C(F)C=C6F)C4=O)=O)C=C3]",,,19.1,91,43.8,10,6,

# Now from value to compound, other results behind:
Amplification coefficient (Bcl-XL),IC50 on Bcl-XL (GST-Bcl-XL [2]),SMILES,IC50 [1] [µM],inhibition at 50 µM [1] [%],IC50 (GST-Bcl-XL [2]) [µM],Amplification coefficient 5TA x 38SZ (Mcl-1 [3]),Amplification coefficient 1TA x 1SZ (Mcl-1 [4]),inhibition of the Bcl-XL/Bak BH3 interaction (GST-Bcl-XL [5]) [%]
15.0,,"CC1(C)CCN(c2ccc(C(=O)NS(=O)(=O)c3ccc(NCCSc4ccccc4)c([N+](=O)[O-])c3)cc2)CC1 [SZ4TA2, reference compound]",,,,,,
15.2,,CC1(C)CCN(c2ccc(C(=O)NS(=O)(=O)c3ccc4ccc(S(=O)(=O)NCCSc5ccccc5)cc4c3)cc2)CC1 [SZ7TA2],,,,,,
7.6,,"COc1cc(OC)cc(C(=O)NS(=O)(=O)c2ccc(CN(CCSc3ccccc3)Cc3ccc(S(=O)(=O)N=[N+]=[N-])cc3)cc2)c1 [SZ9TA5, O=C(NS(C1=CC=C(CN(CC2=CC=C(S(=O)(N=[N+]=[N-])=O)C=C2)CCSC3=CC=CC=C3)C=C1)(=O)=O)C4=CC(OC)=CC(OC)=C4]",8.1,99,,8,4.5,
,below the detectable threshold,"COc1ccc(Cc2ccc(C(=O)NS(=O)(=O)c3ccc(CN(CCSc4ccccc4)Cc4ccc5c(c4)OCO5)cc3)cc2)c(OC)c1OC [SZ31TA24, O=C(NS(C1=CC=C(CN(CC2=CC(OCO3)=C3C=C2)CCSC4=CC=CC=C4)C=C1)(=O)=O)C5=CC=C(CC6=C(OC)C(OC)=C(OC)C=C6)C=C5]",20,82.4,,7,15,
